PMC4336144, “Screening the Medicines for Malaria Venture "Malaria Box" against the Plasmodium falciparum Aminopeptidases, M1, M17 and M18” (PLoS ONE, 2015)
pEC50, pKi: −log10 of the molar value. Read-outs that look alike come from different tables or passages of the source.

How the values were obtained:
PfA-M1 and/or PfA-M17 = assay: Multiplex primary screen, fluorogenic substrate Leu-Mec; type: biochemical, Plasmodium falciparum; settings: 100 μM compound, multiplex assay
Experimental: A multiplex enzyme assay was developed to complete the primary screen of 400 compounds that were provided to us by MMV and SCYNEXIS. Combined PfMAP (15 nM PfA-M1; 80 nM PfA-M17 and 125 nM PfM18AAP) aminopeptidase activity in the presence of a single MMV compound (100 μM solubilized in 100% dimethyl sulfoxide, DMSO, final DMSO concentration in assay = 10%) was determined by simultaneous measurement of the release of the fluorogenic leaving group, -NHMec, from L-Leucine-7-amido-4-methylcoumarin-HCl (Leu-Mec) (Sigma) as well as the hydrolysis of p-nitroanilide from the chromogenic substrate, L-Glutamic acid p-nitroanilide (Glu-pNA) (Sigma). The fluorogenic substrate records the combined activity of PfA-M1 and PfA-M17 while the p-nitroanilide substrate is specific for PfM18AAP. Reactions were carried out in 96-well microtitre plates (200 μL total volume) in 50 mM Tris-HCl pH 8.0, 2 mM CoCl2 at 37°C. Following a 10 min incubation (multi-enzyme and single compound) at 37°C, reactions were initiated by addition of both fluorogenic and chromagenic substrates. Progress curves were monitored using a FLUOstar Omega multimode reader (BMG LabTech) for 1.5 h at 37°C. As activity references, individual enzyme and multiple enzyme 'no compound' controls and 'positive inhibitor' controls (with 10% DMSO) were included in each 96 well plate assay.

PfA-M1 [1] = target: T1, PfA-M1 (Plasmodium falciparum, UniProt O96935); assay: Secondary screening against individual enzyme; type: biochemical; settings: 100 μM compound
T1 construct: made in house; host or cells: Escherichia coli
T1 sequence (O96935 195-1085 limits assumed): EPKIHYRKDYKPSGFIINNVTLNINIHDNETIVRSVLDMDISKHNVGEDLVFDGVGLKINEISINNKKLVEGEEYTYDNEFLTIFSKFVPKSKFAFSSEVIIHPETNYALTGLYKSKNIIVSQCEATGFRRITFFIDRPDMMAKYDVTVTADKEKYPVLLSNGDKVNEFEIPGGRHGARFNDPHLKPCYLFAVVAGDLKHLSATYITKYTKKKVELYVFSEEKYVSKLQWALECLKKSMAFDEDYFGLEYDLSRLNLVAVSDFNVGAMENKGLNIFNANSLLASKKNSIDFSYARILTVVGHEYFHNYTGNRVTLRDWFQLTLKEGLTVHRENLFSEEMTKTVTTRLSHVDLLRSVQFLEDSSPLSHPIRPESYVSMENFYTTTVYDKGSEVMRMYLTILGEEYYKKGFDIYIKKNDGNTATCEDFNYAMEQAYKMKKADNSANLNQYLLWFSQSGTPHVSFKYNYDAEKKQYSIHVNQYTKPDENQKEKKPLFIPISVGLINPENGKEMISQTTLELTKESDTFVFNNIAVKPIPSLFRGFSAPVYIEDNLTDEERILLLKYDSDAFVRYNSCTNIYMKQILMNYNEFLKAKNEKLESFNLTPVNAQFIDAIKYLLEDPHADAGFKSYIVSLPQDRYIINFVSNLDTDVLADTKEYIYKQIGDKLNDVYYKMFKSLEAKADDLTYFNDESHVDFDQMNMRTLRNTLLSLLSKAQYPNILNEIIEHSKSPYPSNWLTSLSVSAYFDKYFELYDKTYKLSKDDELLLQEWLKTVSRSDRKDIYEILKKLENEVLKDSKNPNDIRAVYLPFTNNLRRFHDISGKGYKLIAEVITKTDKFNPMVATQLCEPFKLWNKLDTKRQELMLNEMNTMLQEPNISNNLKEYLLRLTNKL
Experimental: (§1) Aminopeptidase activity of each individual enzyme in the presence of a single MMV compound (100 μM) was determined using Leu-Mec for both PfA-M1 (15 nM) and PfA-M17 (80 nM) or Glu-pNA for PfM18AAP (125 nM). Reactions were carried out in 96-well microtitre plates (200 μl total volume) in 50 mM Tris-HCl pH 8.0, 2 mM CoCl2 at 37°C. Following a 10 min incubation (enzyme and compound) at 37°C, reactions were initiated by addition of enzyme specific substrate. Progress curves were monitored using a FLUOstar Omega multimode reader (BMG LabTech) for 1.5 h at 37°C. As activity references, individual enzyme 'no compound' controls and 'positive inhibitor' controls were included in each 96 well plate assay. We applied a cut-off of < 10% activity in the presence of 100 μM compound for selection to the next phase. Compounds that were selected to proceed were then used in further assays to obtain n = 3.

PfA-M17 [2] = target: T2, PfA-M17 (Plasmodium falciparum, UniProt Q8IL11); assay: Secondary screening against individual enzyme; type: biochemical; settings: 100 μM compound; for reduction of PfA-M17 activity: n = 3
T2 construct: made in house; host or cells: Escherichia coli
T2 sequence (Q8IL11 84-605 limits assumed): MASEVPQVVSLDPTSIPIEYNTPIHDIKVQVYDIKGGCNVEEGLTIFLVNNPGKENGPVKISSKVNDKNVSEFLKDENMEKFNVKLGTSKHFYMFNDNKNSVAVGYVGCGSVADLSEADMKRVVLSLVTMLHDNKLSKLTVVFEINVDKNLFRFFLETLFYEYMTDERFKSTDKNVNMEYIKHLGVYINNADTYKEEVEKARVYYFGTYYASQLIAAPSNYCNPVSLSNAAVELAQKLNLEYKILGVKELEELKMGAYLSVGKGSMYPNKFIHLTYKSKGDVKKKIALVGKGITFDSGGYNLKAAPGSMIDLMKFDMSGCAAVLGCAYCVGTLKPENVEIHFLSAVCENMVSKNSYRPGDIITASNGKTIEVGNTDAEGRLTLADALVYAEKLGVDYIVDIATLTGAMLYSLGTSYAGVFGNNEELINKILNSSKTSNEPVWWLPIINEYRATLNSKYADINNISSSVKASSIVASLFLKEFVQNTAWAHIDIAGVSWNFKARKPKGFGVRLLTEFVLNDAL
Experimental: as §1

PfA-M1 [3] = target: T1, PfA-M1; assay: Determination of Ki values (Dixon plots, H-Leu-NHMec); type: biochemical
Experimental: (§2) MMV020750 was purchased from InterBioScreen (catalog number STOCK2S-51608) and MMV666023 was purchased from ChemBridge (catalog number 5566248). The MMV020750 derivatives 1, 2 and 3 were purchased from Ambinter (catalog numbers AMB425981, AMB2311364 and AMB8506251 respectively). 4-(4,5-Diphenyl-1H-imidazol-2-yl)benzoic acid (4) was purchased from TCI Chemicals, while 4-(4,5-diphenyl-1H-imidazol-2-yl)-N-hydroxybenzamide (5) was prepared from 4 as described (S1 Methods). Aminopeptidase activity of both PfA-M1 and PfA-M17 enzymes was determined by measuring the release of the fluorogenic leaving group, NHMec, from the fluorogenic peptide L-Leucine-7-amido-4-methylcoumarin hydrochloride (H-Leu-NHMec) (Sigma L2145). The assay protocol devised by Stack CM, et al, (J. Biol Chem, 2007) was modified and used, with the reactions were carried out at 37°C and monitored using a spectrofluorometer (BMG FLUOstar) with excitation at 355 nm and emission at 460 nm. Each enzyme was pre-incubated in 50 mM Tris pH 8.0, 2 mM CoCl2; 5% DMSO with each inhibitor for 10 min prior to the addition of substrate. Inhibitor concentration was assayed between 0 and 500 μM final for each compound, and repeated over a narrowed range if necessary. The fluorescence signal was monitored until a final steady state velocity, V, was obtained. The K i values were then evaluated using Dixon plots of 1/V versus inhibitor concentration while the substrate concentration was maintained lower than that of the Km of the enzyme.

PfA-M17 [4] = target: T2, PfA-M17; assay: as above; type: biochemical; settings: for pKi: Dixon plot
Experimental: as §2
This was a particular problem with the PfA-M17 enzyme assays where we noted that at higher concentrations of 4, a decrease in fluorescence was observed. We hypothesise that this is a result of PfA-M17 binding to the compound and quenching the intrinsic fluorescence. […] We therefore chose to analyse a reduced concentration range for 4.

[5] = tested on: asexual blood stage of 3D7 Pf; settings: cited from earlier work
[6] = Dixon plot, read-out: Ki PfA-M1
[7] = ref Avery, read-out: EC50 (Avery)
[8] = ref ChEMBL, read-out: EC50 (ChEMBL)

| PfA-M1 activity retained in the presence of compound (PfA-M1 [1]; n = 3, of total enzyme activity) | pKi (PfA-M1 [3]; Dixon plot including the 500 uM values, read-out: Ki (with all values) PfA-M1) | selectivity for PfA-M17 over M1 (PfA-M17 [4]; from Ki values) | PfA-M1 activity, single dose secondary screen (PfA-M1 [1]; n = 1) | PfA-M17 activity, single dose secondary screen (PfA-M17 [2]; n = 1) | Structure (SMILES) | Activity (PfA-M1 and/or PfA-M17) (PfA-M1 and/or PfA-M17) | reduction of PfA-M17 activity (PfA-M17 [2]) | mode of inhibition of PfA-M1 (PfA-M1 [3]) | pKi (PfA-M1 [3]; [6]) | mode of inhibition of PfA-M17 (PfA-M17 [4]) | pKi (PfA-M17 [4]) | % Pf Inhibition @ 5 μM [5] | pEC50 [5, 7] | pEC50 [5, 8] | reduction of PfA-M1 activity (PfA-M1 [1]; n = 3) | selectivity for PfA-M1 over M17 (PfA-M1 [3]; from Ki values) |
| --- | --- | --- | --- | --- | --- | --- | --- | --- | --- | --- | --- | --- | --- | --- | --- | --- |
| 75% | 3.65 | 6 fold | – | – | COc1cc(-c2nc(-c3ccccc3)c(-c3ccccc3)[nH]2)cc(OC)c1O [MMV020750] | R | 95% | competitive | 4.12 | competitive | 4.92 | 97% | 5.92 | 6.10 | – | – |
| – | – | – | false positive | false positive | O=C(Nc1ccc(-c2nc3ccccc3[nH]2)cc1)c1ccc(Cl)c(Cl)c1 [MMV665840] | R | – | – | – | – | – | – | – | – | – | – |
| – | – | – | – | – | c1ccc(Cn2c(/N=N/c3c(Nc4ccccc4)ccc4ccccc34)nc3ccccc32)cc1 [MMV666023] | R | 70% | competitive | 5.35 | competitive | 4.64 | 96% | 7.40 | 5.57 | 95% | 5 fold |
